Measured values: patent EP2717057A1, “Morphine-6-glucuronide derivatives, immunogens and immunoassay” (Cisbio Bioassays, priority 2012, dated 2014)

Molecular target: rabbit anti-M6G polyclonal antibody
Assay: Cross-reactivity of the competitive M6G-ELISA (M6G-HRP tracer, biotinylated antibody)
Type: binding
Settings: for Kd: approximate, calculated from Figure 1, competing compound diluted in NBCS at 1, 10, 100 or 1000 nM, one site competition model, read-out: affinity constant K; for K relative to M6G (X as high as M6G): ratio of the compound's K to the K of M6G
Experimental: The rabbit anti-M6G polyclonal antibody was biotinylated for the ELISA assay. After dialysis in buffer carbonate 100 mM pH 9, biotin-NHS dissolved in DMF was added to the antibody. After stirring for 30 min, the free biotin was removed by dialysis in PBS 11 mM pH 7.2. Aliquots of labeled antibody were frozen and stored at -20°C. Then, the biotinylated antibody was diluted at ELISA working concentration determined at 0.25µg.mL^-1 in PBS 11 mM pH 7.2 + 1% BSA, aliquoted and stored at -20°C.
96-well microplates were coated with 200 µL/well of a 10 µg.mL^-1 BSA-biotin solution in PBS and incubated for 24 h at room temperature. Then after aspiration 200 µL/well of 10 µg.mL^-1 of avidin solution in PBS were distributed and incubated for 24 h at room temperature. After washing with NaCl, Tween® 0.005%, 200 µL/well of saturation solution was added (PBS + 2% Sorbitol + 0.5% Glycine + 0.1% BSA + 0.065% NaN3) and incubated for 24 h at 4°C. After an aspiration, the microplates were dried at 20°C in a ventilated room for 12 h, packed with a dessicant and stored at 4°C.
A competitive assay format was used for the M6G-ELISA. 100 µL of biotinylated antibody were added and incubated for 2 h at room temperature under 400 rpm stirring. After incubation, the wells were emptied and 3 wash cycles with H2O + 0.05% Tween® were applied. 50 µL of calibrators, controls and samples were added in duplicate. If necessary, samples were prediluted in dilution buffer (PBS + 0.1% BSA), then 50 µL of M6G-HRP conjugate was distributed in all the wells and incubated for 2h at room temperature, under 400rpm stirring. After a final washing step, 100 µL of HRP substrate (TMB) were added, and incubated for 10 min at room temperature, under 400rpm stirring. The chromogenic reaction was stopped with 100 µL H2SO4 1 N, and the absorbance of each sample was determined at 450 nm and 620 nm (reference wavelength). The results were analyzed using GraphPad Prism Software, model one site competition.
The cross-reactivity of the assay described in example 5 with several compounds that are structurally close to M6G was evaluated. For this purpose, the assay was performed with 50 µL of samples constituted of competing compounds diluted in NBCS at the concentrations of: 1 nM, 10 nM, 100 nM or 1000 nM.

Compound `COc1ccc2c3c1O[C@H]1[C@@H](O)C=C[C@H]4[C@@H](C2)NCC[C@@]341` [norcodeine, Norcodeine] has a Kd greater than 1000 nM.
For `CN1CC[C@]23c4c5ccc(O[C@@H]6O[C@H](C(=O)O)[C@@H](O)[C@H](O)[C@H]6O)c4O[C@H]2[C@@H](O)C=C[C@H]3[C@H]1C5` [M3G, Morphine-3-glucuronide], the Kd was 670 nM and the “K relative to M6G (X as high as M6G)” value was “more than 100 X”.
For `CN1CC[C@]23c4c5ccc(O)c4O[C@H]2[C@@H](O[C@@H]2O[C@H](C(=O)O)[C@@H](O)[C@H](O)[C@H]2O)C=C[C@H]3[C@H]1C5` [M6G, Morphine-6-glucuronide], the Kd was 5.9 nM.
`COc1ccc2c3c1O[C@H]1[C@@H](O)C=C[C@H]4[C@@H](C2)N(C)CC[C@@]341` [codeine, Codeine] was tested, and the Kd was 220 nM and the “K relative to M6G (X as high as M6G)” value was 35 X.
Compound `Oc1ccc2c3c1O[C@H]1[C@@H](O)C=C[C@H]4[C@@H](C2)NCC[C@@]341` [normorphine, Normorphine] has a Kd greater than 1000 nM.
In the case of `CN1CC[C@]23c4c5ccc(O[C@@H]6O[C@H](C(=O)O)[C@@H](O)[C@H](O)[C@H]6O)c4O[C@H]2[C@@H](O[C@@H]2O[C@H](C(=O)O)[C@@H](O)[C@H](O)[C@H]2O)C=C[C@H]3[C@H]1C5` [M3,6G, Morphine-3-6-diglucuronide], the Kd is reported as 3.4 nM.
